From patent US20130029970A1 (priority 2009, published 2013)
Like-named read-outs stand apart in the source and are kept apart here.

Tests used:
human CB1 receptors = target: T1, human CB1 receptors (Homo sapiens, UniProt P21554); experiment: cAMP assay in HEK-293 cells, hCB1 agonist; type: cell-based; settings: inhibition of forskolin-stimulated cAMP, HEK-293 cells
T1 construct: (cDNA clone) CNR01L000
Source text: (§1) Stable, HEK-293-derived cell lines that recombinantly express hCBI or hCB2 were established. In brief, the clone hCB1 (CNR IL) or hCB2 (CNR2) was transfected into human embryonic kidney cells (HEK-293) using Lipofectamine 2000 (Gibco, Cat#11668-019) according to the manufacturer's protocol. Transfected clones were isolated by single colony purification and clones were screened for receptor expression using a whole cell, ^3H—CP 55,940 radioligand binding assay. HEK-293 stable cells were maintained in Dulbecco's modified Eagles medium (DMEM) containing 10% fetal bovine serum, 2 mM L-glutamine and 0.5 mg/mL G-418.
(§2) Functional assays which monitor G-protein coupled receptor or downstream cellular responses can be used to characterize potential CB1 receptor and/or CB2 receptor agonist or antagonist activities. Direct activation (or inhibition of activation) can be monitored using a GTPγS assay (membrane-based assay) or cAMP assay (whole cell-based assay).
(§3) cAMP assays were performed in HEK-293 cells stably expressing human CB1 or CB2 receptors. For cannabinoid receptor functional assays measuring agonist effects on cellular cAMP levels, monolayers of cultured cells were harvested with enzyme-free PBS-based cell dissociation buffer (Gibco, Cat#13151-04). Cells suspensions were centrifuged and the cells were washed once with PBS, were centrifuged again, and the cells were re-suspended in HBSS (Hank's Balanced Salt Solution, Cellgro, Cat #21-022-CV) solution containing 10 mM HEPES and 0.1% fatty acid free BSA (Sigma, Cat #A0281). Cell suspensions were prepared at 1,500,000 cells per ml. Stock solutions of test substances (10 mM) in DMSO were diluted to 1 mM using 30% DMSO as diluent. Test substances of solutions (1 mM) were further diluted down to 3× of final assay concentrations in the above HBSS buffer containing 0.1% BSA in the presence of 90 uM forskolin (Sigma Cat#F6886). To perform the assay, 20 uL of cell suspension (1,500,000 cells/mL) were added to each well in 96 well plate and treated with 10 uL test substance solution diluted as described above. Cells and compounds were incubated at 37° C. for 30 minutes. Cells were lysed and cAMP concentration was measured using DiscoveRx −XS+ cAMP assay kit (DiscoveRx Corporation Ltd., Fremont, Calif., USA, Cat #90-0075-03), following the manufacturer's protocol. GraphPad Prism software was used to calculate EC50 values using sigmoidal dose response curve fitting. The maximal amount of cAMP produced by forskolin was defined as 100%. CB1 or CB2 agonists reduced forskolin-stimulated cAMP signaling. The EC50 value of an agonist compound was defined as the concentration at which 50% of the forskolin-stimulated cAMP synthesis was inhibited.

human CB2 receptors = target: T2, human CB2 receptors (Homo sapiens, UniProt P34972); experiment: cAMP assay in HEK-293 cells, hCB2 agonist; type: cell-based; settings: inhibition of forskolin-stimulated cAMP, HEK-293 cells; for EC50: read-out: hCB2 EC50 (cAMP ag)
T2 construct: (cDNA clone) CNR0200000
Method: as §2
as §3, with “For cannabinoid receptor functional assays measuring agonist effects on cellular cAMP levels, monolayers of cultured cells were harvested with enzyme-free PBS-based cell dissociation buffer (Gibco, Cat#13151-04).” left out, “100%.” for “100%. CB1 or CB2 agonists reduced forskolin-stimulated cAMP signaling. The EC50 value of an agonist compound was defined as the concentration at which 50% of the forskolin-stimulated cAMP synthesis was inhibited.”

[1] = target: T3, recombinant human cannabinoid receptor CB2 (Homo sapiens, UniProt P34972); experiment: Cannabinoid receptor radioligand binding assay, [3H]-CP 55,940 displacement, hCB2
T3 construct: (cDNA clone) CNR0200000
Method: (§4) Membranes were isolated from transfected cells as follows. Monolayers of cultured cells were washed twice with phosphate-buffered saline (PBS). […] Homogenates were centrifuged 10 minutes at 1000×g at 4° C. The supernatant was collected and was centrifuged for 1 hour at 40,000×g. The supernatant was then decanted and the resulting pellet was re-suspended in 20 mM HEPES, pH 7.4, 5 mM MgCl2, 1 mM EDTA, 10% sucrose with complete cocktail protease inhibitors. Protein concentration of membrane suspensions were measured by Bradford Protein Assay using bovine serum albumin as the standard (BioRad catalog #500-0006). Protein concentrations of membrane suspensions were adjusted with the final buffer in the range of 5 to 10 mg/mL and were stored at −80° C. until further use.
A rapid filtration technique using Millipore FB filter plates (Catalog #MADVNOB) and filtration apparatus (Millipore system Catalog MAVM0960R) with vacuum aspiration was used to harvest and rinse labeled membranes (8 times with 0.2 mL of chilled binding buffer). […] Binding data were analyzed using GraphPad Prism (GraphPad Software, Inc. San Diego, Calif.).

[2] = target: T4, recombinant human cannabinoid receptor CB1 (Homo sapiens, UniProt P21554); experiment: Cannabinoid receptor radioligand binding assay, [3H]-CP 55,940 displacement, hCB1; settings: displacement of 0.5 nM [3H]-CP 55,940; read-out: hCB1 IC50 (CP displ)
T4 construct: (cDNA clone) CNR01L000
Source text: as §1
Membranes were isolated from transfected cells as follows. Monolayers of cultured cells were washed twice with phosphate-buffered saline (PBS). Cells were scraped into 20 mM HEPES, pH 7.4, 10 mM EDTA containing complete cocktail protease inhibitors (Roche, Catalog #11 697 498 001) and were homogenized by an electric-powered mechanical probe homogenizer (Omni GLH; probe G7-195S) for 40 seconds at 7000 rpm. Homogenates were centrifuged 10 minutes at 1000×g at 4° C. The supernatant was collected and was centrifuged for 1 hour at 40,000×g. The supernatant was then decanted and the resulting pellet was re-suspended in 20 mM HEPES, pH 7.4, 5 mM MgCl2, 1 mM EDTA, 10% sucrose with complete cocktail protease inhibitors. Protein concentration of membrane suspensions were measured by Bradford Protein Assay using bovine serum albumin as the standard (BioRad catalog #500-0006). Protein concentrations of membrane suspensions were adjusted with the final buffer in the range of 5 to 10 mg/mL and were stored at −80° C. until further use.
Radioligand binding assays were performed by incubating membranes (2-10 μg protein) prepared from HEK-293 cells expressing recombinant human cannabinoid receptors, CB1 or CB2, at room temperature with 0.5 nM cannabinoid receptor agonist, [^3H]-CP 55,940 (Perkin Elmer, catalog #NET1051) in 0.2 mL of binding buffer (50 mM Tris-HCl, pH 7.5, 5 mM MgCl2, 2.5 mM EDTA) and 0.1% fatty acid free bovine serum albumin (Sigma Cat. #A0821) for 90 minutes. A rapid filtration technique using Millipore FB filter plates (Catalog #MADVNOB) and filtration apparatus (Millipore system Catalog MAVM0960R) with vacuum aspiration was used to harvest and rinse labeled membranes (8 times with 0.2 mL of chilled binding buffer). The radioactivity bound to the filters was counted with 0.05 mL of liquid scintillant (UltraGold MV, PerkinElmer catalog #6013159) in a scintillation counter (Perkin Elmer Microbeta instrument). Nonspecific binding was determined in the presence of unlabeled 1 μM CP 55,940 (Sigma Aldrich, catalog #C1112). Binding data were analyzed using GraphPad Prism (GraphPad Software, Inc. San Diego, Calif.).

human CB2 (hCB2) = target: T5, human CB2 (hCB2) (Homo sapiens, UniProt P34972); experiment: 35S GTPγS binding assay, hCB2 agonist; type: biochemical; settings: GTPγS agonist, HEK-293 membranes; read-out: hCB2 EC50 (GTPyS ag)
T5 construct: (cDNA clone) CNR0200000
Method: cDNA expression clones for human CB1 (hCB1, Genbank Accession No. AY225225) and human CB2 (hCB2, Genbank Accession No. AY242132) expressed in vector pcDNA3.1+ were purchased from UMR cDNA Resource Center, Rolla, Mo. (Clone ID CNR01L000 for hCB1; CNR0200000 for hCB2).
as §4, §2
^35S GTPγS binding assays were performed by incubating recombinant cell membranes prepared above (5 μg) in the presence of scintillation proximity assay beads (SPA beads, Catalog #RPNQ0252 GE Healthcare, Buckinghamshire, England) in GTPγS binding buffer [50 mM HEPES (pH 7.4), 100 mM NaCl, 5 mM MgCl2, 0.001% saponin (Sigma catalog #S4521)] supplemented with 20 uM GDP (Sigma catalog #G7127) in the presence or absence of test compound. The reaction was carried out in 96-well microplates with 0.1 nM [^35S]GTPγS (specific activity=1250 Ci/mmol; Perkin Elmer catalog #NEG030X250UC) in a final volume of 100 uL. After a 90 min room temperature incubation, the reaction was analyzed using a scintillation counter (Perkin Elmer Microbeta instrument). Binding data were analyzed using GraphPad Prism.

T1 sequence (P21554 whole entry): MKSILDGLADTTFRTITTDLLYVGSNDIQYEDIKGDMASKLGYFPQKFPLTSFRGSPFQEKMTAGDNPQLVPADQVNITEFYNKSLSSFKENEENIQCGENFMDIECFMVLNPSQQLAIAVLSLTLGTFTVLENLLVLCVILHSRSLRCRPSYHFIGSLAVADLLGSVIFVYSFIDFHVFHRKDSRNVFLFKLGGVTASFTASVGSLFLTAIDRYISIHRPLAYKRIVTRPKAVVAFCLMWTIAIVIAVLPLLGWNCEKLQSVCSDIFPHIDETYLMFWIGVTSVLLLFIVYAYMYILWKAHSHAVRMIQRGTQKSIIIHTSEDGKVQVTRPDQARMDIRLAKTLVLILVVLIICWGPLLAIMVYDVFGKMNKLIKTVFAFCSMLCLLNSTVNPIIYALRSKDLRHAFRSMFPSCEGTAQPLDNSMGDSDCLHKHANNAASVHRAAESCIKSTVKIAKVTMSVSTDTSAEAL
T5 sequence (P34972 whole entry): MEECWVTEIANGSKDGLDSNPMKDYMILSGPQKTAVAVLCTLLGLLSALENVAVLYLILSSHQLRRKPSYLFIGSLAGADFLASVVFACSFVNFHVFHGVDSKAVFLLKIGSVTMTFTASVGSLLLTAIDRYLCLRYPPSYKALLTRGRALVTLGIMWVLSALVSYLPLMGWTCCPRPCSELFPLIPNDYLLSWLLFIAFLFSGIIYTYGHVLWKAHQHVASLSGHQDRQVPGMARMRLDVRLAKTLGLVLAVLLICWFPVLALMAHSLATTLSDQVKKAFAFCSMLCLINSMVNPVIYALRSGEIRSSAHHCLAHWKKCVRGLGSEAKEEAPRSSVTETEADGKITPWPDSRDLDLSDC
T3 sequence (P34972 whole entry): as above
T2 sequence (P34972 whole entry): as above
T4 sequence (P21554 whole entry): as the sequence (P21554 whole entry) above

SMILES | hCB1 EC50 (cAMP ag, nM) (human CB1 receptors) | hCB2 EC50 (cAMP ag, nM) (human CB2 receptors) | IC50 ([1]; displacement of 0.5 nM [3H]-CP 55,940, read-out: hCB2 IC50 (CP displ)) | IC50 [2] | IC50 [1] | EC50 (human CB2 receptors) | EC50 (human CB2 (hCB2))
COc1ccc(C(=O)c2cc3cc(C)n(CCN4CCNC4=O)c3s2)cc1 [Compound 61] | NS (NS means “Not Significant,” which means less than 30% agonist activity when compared to the positive control.) | NS (NS means “Not Significant,” which means less than 30% agonist activity when compared to the positive control.) |  |  |  |  | 
COc1ccc(C(=O)c2cc3cc(C)n(CCCNC(C)=O)c3s2)cc1 [Compound 63, N-(3-(2-(4-Methoxybenzoyl)-5-methyl-6H-thieno[2,3-b]pyrrol-6-yl)propyl)acetamide] | NS (NS means “Not Significant,” which means less than 30% agonist activity when compared to the positive control.) | NS (NS means “Not Significant,” which means less than 30% agonist activity when compared to the positive control.) |  |  |  |  | 
COc1ccc(C(=O)c2cc3cc(C)n(C(=O)N4CCOCC4)c3s2)cc1 [Compound 66, (2-(4-Methoxybenzoyl)-5-methyl-6H-thieno[2,3-b]pyrrol-6-yl)(morpholino)methanone] | NS (NS means “Not Significant,” which means less than 30% agonist activity when compared to the positive control.) |  | > 10000 nM | > 10000 nM |  |  | 
COc1ccc(C(=O)c2cc3cc(C)n(CCCNS(=O)(=O)C(F)(F)F)c3s2)cc1 [Compound 75, 1,1,1-Trifluoro-N-(3-(2-(4-methoxybenzoyl)-5-methyl-6H-thieno[2,3-b]pyrrol-6-yl)propyl)methanesulfonamide] | NS (NS means “Not Significant,” which means less than 30% agonist activity when compared to the positive control.) | NS (NS means “Not Significant,” which means less than 30% agonist activity when compared to the positive control.) |  |  |  |  | 
CCOc1ccc(C(=O)c2cc3cc(C)n(CCCNS(C)(=O)=O)c3s2)cc1 [Compound 94, N-(3-(2-(4-Ethoxybenzoyl)-5-methyl-6H-thieno[2,3-b]pyrrol-6-yl)propyl)methanesulfonamide] | NS (NS means “Not Significant,” which means less than 30% agonist activity when compared to the positive control.) |  |  |  | 100 to 1000 nM | 100 to 1000 nM | < 100 nM
CCOc1ccc(C(=O)c2cc3cc(C)n(CCCNS(C)(=O)=O)c3s2)c(F)c1 [Compound 95, N-(3-(2-(4-Ethoxy-2-fluorobenzoyl)-5-methyl-6H-thieno[2,3-b]pyrrol-6-yl)propyl)methanesulfonamide] | NS (NS means “Not Significant,” which means less than 30% agonist activity when compared to the positive control.) |  |  |  | 100 to 1000 nM | < 100 nM | 100 to 1000 nM
Cc1ccc(C(=O)c2cc3cc(C)n(CCCNS(C)(=O)=O)c3s2)c(F)c1 [Compound 97, N-(3-(2-(2-Fluoro-4-methylbenzoyl)-5-methyl-6H-thieno[2,3-b]pyrrol-6-yl)propyl)methanesulfonamide] | NS (NS means “Not Significant,” which means less than 30% agonist activity when compared to the positive control.) |  |  |  | 100 to 1000 nM | < 100 nM | < 100 nM
COc1ncc(C(=O)c2cc3cc(C)n(CCN4CCOCC4)c3s2)cn1 [Compound 118, (2-Methoxypyrimidin-5-yl)(5-methyl-6-(2-morpholinoethyl)-6H-thieno[2,3-b]pyrrol-2-yl)methanone] | NS (NS means “Not Significant,” which means less than 30% agonist activity when compared to the positive control.) |  |  |  |  | 100 to 1000 nM | 100 to 1000 nM
